Source: patent EP0108452A1, “Treatment of gastric inflammatory disease with cytoprotective prostaglandins and histamine-2 blocking anti-secretory agents” (THE PROCTER & GAMBLE COMPANY, priority 1982, dated 1984)

System: Male Sprague-Dawley rats
Test: Cysteamine duodenal ulcer model (cysteamine gastric ulcer model)
Assay type: in vivo
Conditions: PG-V 5 mg/kg; for % of Cntrl.: damage grading score relative to veh. cntrl.; for % of Cntrl. / % of Redc'n.: oral x3; for Damage Grading Score: oral, x3 at 0, 4 and 8 hours after cysteamine 500 mg/kg s.c., lower score = greater protection; for % of Redc'n.: reduction of damage grading score vs veh. cntrl.
Experimental: Male Sprague-Dawley rats weighing between 180 and 230 g are fasted for 24 hours during which time they are given ad libitum access to tap water. At the end of the 24 hour fast period, 500 mg/kg of cysteamine is administered subcutaneously. At the same time, the drug or control treatment is begun. The drug or control treatment consists of administering the drug or vehicle/control at 24 hours, 28 hours, and 32 hours after the fast has begun. That is, the drug, or vehicle/control treatment is administered at 0, 4 and 8 hours after the cysteamine. 48 hours after the fasting has begun, 24 hours after the administration of cysteamine, the rats are anesthetized and sacrificed. After sacrifice, the abdominal cavity is opened, and the stomach and approximately 2 inches of duodenum are excised and removed from the rat. They are placed on a 4" x 4" labelled index card. Care must be taken not to disturb the duodenum as this could affect the grading. The stomach and duodenum are cut open along the greater curvature and longitudinally along the anti-mesenteric side, respectively. The duodenum is carefully spread out without altering the orientation of the lesions and the thickness of the mucosa. They are viewed through a stereo microscope at approximately 7x magnification for gross examination of the stomach, pylorus and duodenal surface. For each duodenum, the amount of erythema, the amount of edema, a total lesion area and the severity of the lesions are evaluated according to the grading scale in Table 1. This is also repeated for the stomach. This information is recorded. The lower the score, the greater the protection. The lowest score which an agent can achieve in this model is the maximal intrinsic activity for this agent in this model. The smallest dosage of this agent which achieves this lowest score is the lowest dosage or level of administration which yields maximal intrinsic activity for this agent. [table] In Examples I-VIII, all were conducted in accordance with the cysteamine gastric ulcer model described above. The vehicle was 0.75% polyoxyethylene (20) sorbitan mono-oleate (Tween 80). All dosages were at a rate of 2.5 ml/kg. The treatment compositions were orally dosed at a volume of 2.5 mllkg, in accordance with the model, at 24, 28 and 32 hours after the beginning of the fast, or 0, 4 and 8 hours after the subcutaneous administration of cysteamine. In preparing the prostaglandin + […] compositions, the selected amount of prostaglandin and selected amount of cimetidine were added to a volume which was equivalent to 2.5 ml/kg for each animal. This was then given to the animal at 24, 28 and 32 hours respectively, after the beginning of the fast. The damage grading score was in accordance with the table provided in the cysteamine gastric ulcer model.

[1] = Example I, Cimetidine 25 mg/kg, veh. cntrl. 9.0 ± 2.2
[2] = Example II, Cimetidine 25 mg/kg
[3] = Example II, Cimetidine 25 mg/kg, veh. cntrl. 15.5 ± 4.5
[4] = Example III, Cimetidine 50 mg/kg
[5] = Example III, Cimetidine 50 mg/kg, veh. cntrl. 18.3 ± 3.7

Row | SMILES | % of Cntrl. (Example I, Cimetidine 25 mg/kg) | Damage Grading Score [1] | % of Redc'n. (Example I, Cimetidine 25 mg/kg) | % of Cntrl. [2] | Damage Grading Score [3] | % of Redc'n. [2] | % of Cntrl. [4] | Damage Grading Score [5] | % of Redc'n. [4]
1 | CN/C(=N/CCSCc1nc[nH]c1C)NC#N [Cimetidine] | 133% | 12.0 ± 2.0 | -33% | 159% | 24.6 ± 1.3 | -59% | 61% | 11.1 ± 3.0 | 39%
2 | CCCCCC(=O)C#C[C@H]1CCC(=O)[C@@H]1OCCCCCC(=O)O [PG-V, 9,15 dioxo-7-oxa-prost-13,14-ynoic acid] | 140% | 12.6 ± 2.6 | -40% | 106% | 16.4 ± 3.3 | -6% | 117% | 21.5 ± 4.6 | -17%
